Measured values: patent US20120010205A1, “NOVEL QUINOLINE ESTERS USEFUL FOR TREATING SKIN DISORDERS” (Wyeth LLC, priority 2010, published 2012)

Assays:
[1] = biological target: T1, human LXRβ (Homo sapiens, UniProt P55055); assay: Ligand-binding test procedure for human LXRβ (3H T0901317 tracer, flash plates); conditions: read-out: hLXRb binding IC50
T1 construct: made in house; host or cells: E. coli
T1 sequence (P55055 1-460): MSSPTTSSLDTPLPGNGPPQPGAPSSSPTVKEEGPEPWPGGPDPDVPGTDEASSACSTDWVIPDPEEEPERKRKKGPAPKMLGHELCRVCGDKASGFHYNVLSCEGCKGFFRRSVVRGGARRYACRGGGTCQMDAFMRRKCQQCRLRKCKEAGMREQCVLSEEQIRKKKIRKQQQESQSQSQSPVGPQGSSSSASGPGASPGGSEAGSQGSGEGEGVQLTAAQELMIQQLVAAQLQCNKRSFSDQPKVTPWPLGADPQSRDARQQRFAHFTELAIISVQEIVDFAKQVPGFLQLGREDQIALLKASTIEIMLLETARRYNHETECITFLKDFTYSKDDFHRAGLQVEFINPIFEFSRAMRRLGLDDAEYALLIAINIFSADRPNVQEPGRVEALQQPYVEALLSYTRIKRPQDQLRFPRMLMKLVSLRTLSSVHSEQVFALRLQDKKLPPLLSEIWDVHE
Method: LIGAND-BINDING TEST PROCEDURE FOR HUMAN LXRβ.
Buffer: 100 mM KCl, 100 mM TRIS (pH 7.4 at +4° C.), 8.6% glycerol, 0.1 mM PMSF*, 2 mM MTG*, 0.2% CHAPS (* not used in wash buffer)
Receptor source: E. coli extracted from cells expressing biotinylated hLXRβ. Extract was made in a similar buffer as above, but with 50 mM TRIS.
Washed streptavidin and coated flash plates with wash buffer. Diluted receptor extract to give Bmax˜4000 cpm and add to the wells. Wrapped the plates in aluminum foil and stored them at +4° C. overnight.
Made a dilution series in DMSO of the test ligands. Made a 5 nM solution of the radioactive tracer in buffer. Mixed 250 μL diluted tracer with 5 μL of the test ligand from each concentration of the dilution series. Washed the receptor-coated flash plates. Added 200 μL per well of the ligand/radiolabel mixture to the receptor-coated flash plates. Wrapped the plates in aluminum foil and incubate at +4° C. over night.
Aspirated wells, and washed the flashed plates. Sealed the plate. Measured the remaining radioactivity in the plate.

[2] = biological target: T2, hLXRa (Homo sapiens, UniProt Q13133); assay: hLXRa binding
T2 sequence (Q13133 1-447): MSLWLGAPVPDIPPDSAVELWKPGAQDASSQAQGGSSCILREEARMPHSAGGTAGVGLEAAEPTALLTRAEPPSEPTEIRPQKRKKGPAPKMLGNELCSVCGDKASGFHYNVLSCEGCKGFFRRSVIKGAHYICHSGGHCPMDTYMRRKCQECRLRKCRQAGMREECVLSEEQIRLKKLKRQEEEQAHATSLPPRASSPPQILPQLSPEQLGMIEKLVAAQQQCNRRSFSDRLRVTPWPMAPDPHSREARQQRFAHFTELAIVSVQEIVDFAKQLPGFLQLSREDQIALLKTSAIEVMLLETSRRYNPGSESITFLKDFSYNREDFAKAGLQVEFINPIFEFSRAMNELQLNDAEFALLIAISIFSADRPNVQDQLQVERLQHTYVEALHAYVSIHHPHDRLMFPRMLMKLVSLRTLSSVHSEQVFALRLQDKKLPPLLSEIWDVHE

[3] = test system: ABCG1; assay: Gene regulation by LXR: ABCG1, human foreskin fibroblasts (serum-free); format: cell-based; conditions: Fibroblast
[4] = test system: ABCG1; assay: Gene regulation by LXR: ABCG1, KERTr (serum-free); format: cell-based

Row | SMILES | IC50 [1] [µM] | IC50 [2] [µM] | EC50 [4] [µM] | EC50 [3] [µM]
1 | CCS(=O)(=O)c1cccc(C(=O)Oc2cccc(-c3c(C(C)C)cnc4c(Cl)cccc34)c2)c1 [Example 1, 3-(8-chloro-3-isopromilquinolin-4-yl)phenyl 3-(ethylsulfonyl)benzoate] | 0.0037 | 0.0162 | 0.00076 | 0.059
2 | Cc1ccc(S(=O)(=O)N2CCOCC2)cc1C(=O)Oc1cccc(-c2c(C(C)C)cnc3c(Cl)cccc23)c1 [Example 38, 3-(8-chloro-3-isopropylquinolin-4-yl)phenyl 2-methyl-5-(morpholin-4-ylsulfonyl)benzoate] | 0.506 | 0.664 | 0.00062 | 0.044
3 | CS(=O)(=O)c1cccc(C(=O)Oc2cccc(-c3c(-c4ccccc4)cnc4c(C(F)(F)F)cccc34)c2)c1 [Example 22, 3-[3-phenyl-8-(trifluoromethyl)quinolin-4-yl]phenyl 3-(methylsulfonyl)benzoate] | 0.0023 | 0.0039 | 0.00915 | 0.0099
4 | CC(C)c1cnc2c(Cl)cccc2c1-c1cccc(OC(=O)c2ccc(S(C)(=O)=O)cc2)c1 [Example 3, 3-(8-chloro-3-isopropylquinolin-4-yl)phenyl 4-(methylsulfonyl)benzoate] | 0.017 | 0.057 | 0.00118 | 0.045
5 | CCS(=O)(=O)c1cccc(C(=O)Oc2cccc(-c3c(C)cnc4c(C(F)(F)F)cccc34)c2)c1 [Example 26] | 0.0086 | 0.052 | 0.25 | 0.25
6 | CNS(=O)(=O)c1cccc(C(=O)Oc2cccc(-c3c(C(C)C)cnc4c(Cl)cccc34)c2)c1 [Example 36, 3-(8-chloro-3-isopropylquinolin-4-yl)phenyl 3-(methylsulfamoyl)benzoate] | 0.0042 | 0.0092 | 0.0004 | 0.008
7 | CS(=O)(=O)c1cccc(C(=O)Oc2cccc(-c3c(Cc4ccccc4)cnc4c(C(F)(F)F)cccc34)c2)c1 [Example 23, 3-[3-benzyl-8-(trifluoromethyl)quinolin-4-yl]phenyl 3-(methylsulfonyl)benzoate] | 0.0027 | 0.0058 | 0.025 | 0.016

Further lines, with some results ahead:

Row | IC50 [1] [µM] | IC50 [2] [µM] | EC50 [4] [µM] | SMILES | EC50 [3] [µM]
8 | 0.014 | 0.058 | 0.042 | Cc1cnc2c(C(F)(F)F)cccc2c1-c1cccc(OC(=O)c2cccc(S(=O)(=O)N(C)C)c2)c1 [Example 25, 3-[3-methyl-8-(trifluoromethyl)quinolin-4-yl]phenyl 3-(dimethylsulfamoyl)benzoate] | 0.25
9 | 0.004 | 0.0163 | 0.00148 | CCS(=O)(=O)c1cccc(C(=O)Oc2cccc(-c3c(C(C)C)cnc4c(C(F)(F)F)cccc34)c2)c1 [Example 6, 3-[3-isopropyl-8-(trifluoromethyl)quinolin-4-yl]phenyl-3-(ethylsulfonyl)benzoate] | 0.037
10 | 0.0037 | 0.0117 | 0.00146 | Cc1ccc(S(C)(=O)=O)cc1C(=O)Oc1cccc(-c2c(C(C)C)cnc3c(Cl)cccc23)c1 [Example 2, 3-(8-chloro-3-isopropyiquinolin-4-yl)phenyl 2-methyl-5-(methylsulfonyl)benzoate] | 0.033
11 | 0.024 | 0.064 | 0.00053 | Cc1ccc(S(=O)(=O)N(C)C)cc1C(=O)Oc1cccc(-c2c(C(C)C)cnc3c(C(F)(F)F)cccc23)c1 [Example 10] | 0.058
12 | 0.025 | 0.053 | 0.00162 | Cc1ccc(S(=O)(=O)N(C)C)cc1C(=O)Oc1cccc(-c2c(C(C)C)cnc3c(Cl)cccc23)c1 [Example 5] | 0.05
13 | 0.064 | 0.188 | 0.00138 | CC(C)c1cnc2c(Cl)cccc2c1-c1cccc(OC(=O)c2ccc(S(=O)(=O)N(C)C)cc2)c1 [Example 34, 3-(8-chloro-3-isopropylquinolin-4-yl)phenyl 4-(dimethylsulfamoyl)benzoate] | 0.078
